{"source": "patent US20150258197A1", "about": "“EUTECTIC ISOMETHEPTENE MUCATE” (TONIX PHARMA HOLDINGS LIMITED, priority 2014, published 2015)", "key": {"mice [1]": {"system": "mice", "assay": "Formalin Test, late phase (licking score)", "format": "in vivo", "details": "mouse, 5% formalin intraplantar, three doses p.o. 15 minutes before the test, 15-50 min after formalin", "text": "Common mouse models for pain include the Formalin Test (Wheeler-Aceto, et al., Psychopharmacology, 104, 35-44, 1991), the Hot Plate Test (Eddy and Leimbach, J. Pharmacol. Exp. Ther., 107, 385-393, 1953), and the Tail-flick Test (D'Amour and Smith, J. Pharmacol. Exp. Ther., 1, 74-79, 1941). These methods detect analgesic activity of compositions of interest. In the Formalin Test, mice are given an intraplantar injection of 5% formalin into one posterior hindpaw to induce paw licking. Test compositions are given to the mice before treatment with formalin and the mice are evaluated and compared to a control group. In the Hot Plate Test, mice are placed onto a hot metal plate maintained at 54° C. and the latency to the first foot-lick is measured. As with the Formalin test, compositions of interest are given to the mice before the test and the mice are evaluated and compared to a control group. In the Tail-flick Test, a mouse's tail is heated by means of a thermal light source, and the latency before the animal withdraws its tail is measured. […]\nMice were given an intraplantar injection of 5% formalin (25 μL) into one posterior hindpaw. […] Mice were briefly observed at one minute intervals between 15 and 50 minutes after the injection of formalin and the number of occasions that the mice were observed licking the injected paw was recorded. […]"}, "[2]": {"system": "Spontaneous trigeminal allodynia (STA) rats", "assay": "Tactile sensory testing with von Frey monofilaments in STA rats", "format": "in vivo, rat", "details": "injected, versus (S)-isometheptene mucate treated or control rats", "text": "Pain, headaches, and migraines have been modeled in animals such as mice and rats. For example, Oshinsky et al. (Oshinsky, M. L., et al., Spontaneous Trigeminal Allodynia in Rats: A Model of Primary Headache, 2012, 52: 1336-1349) describes spontaneous trigeminal allodynia (STA) rats with the inherited trait of spontaneously changing trigeminal von Frey thresholds. These rats are a model of spontaneous headache and can be used as a model of primary headache. Through a series of tactile sensory tests, the periorbital, hind-paw, and jaw-pressure thresholds for STA rats are determined by applying von Frey monofilaments. […] Analgesic activity of the compositions described herein can be evaluated by determining trigeminal von Frey thresholds in STA rats. […]\nSTA rats and litter mates without the trait were injected with compounds selected from (R)-isometheptene mucate and (5)-isometheptene mucate on days when their thresholds in spontaneous allodynia rats were 4 g or below for STA rats. […] Tactile sensory thresholds were recorded prior to and following injections at 0.5 hours, 1.5 hours, 2.5 hours, 3.5 hours, and 24 hours. […]\nPeriorbital, hind-paw, and jaw-pressure thresholds were determined by applying von Frey monofilaments (Stoelting Co., Wood Dale, Ill., USA). […] Left and right threshold data were recorded separately. […]"}, "mice [3]": {"system": "mice", "assay": "Tail-flick Test", "format": "in vivo", "details": "mouse", "text": "Common mouse models for pain include the Formalin Test (Wheeler-Aceto, et al., Psychopharmacology, 104, 35-44, 1991), the Hot Plate Test (Eddy and Leimbach, J. Pharmacol. Exp. Ther., 107, 385-393, 1953), and the Tail-flick Test (D'Amour and Smith, J. Pharmacol. Exp. Ther., 1, 74-79, 1941). These methods detect analgesic activity of compositions of interest. In the Formalin Test, mice are given an intraplantar injection of 5% formalin into one posterior hindpaw to induce paw licking. Test compositions are given to the mice before treatment with formalin and the mice are evaluated and compared to a control group. In the Hot Plate Test, mice are placed onto a hot metal plate maintained at 54° C. and the latency to the first foot-lick is measured. As with the Formalin test, compositions of interest are given to the mice before the test and the mice are evaluated and compared to a control group. In the Tail-flick Test, a mouse's tail is heated by means of a thermal light source, and the latency before the animal withdraws its tail is measured. Test compositions are administered before the test, and compared with a vehicle control group. The analgesic activity of the compositions described herein can be identified using the mouse formalin, hot plate, and tail-flick tests.\nA method for detecting analgesic activity followed that described by D'Amour and Smith (J. Pharmacol. Exp. Ther., 1, 74-79, 1941). The mouse's tail was heated by means of a thermal light source (20 volts). The latency before the animal withdraws its tail was measured (maximum: 15 seconds).\nTen mice were studied per group. The test was performed partially blind.\nThe test substances selected from (R)-isometheptene mucate, and (S)-isometheptene mucate were evaluated at three doses ([…]), administered p.o. 15 minutes before the test, and compared with a vehicle control group. […]\nData with the test substance were analyzed by comparing treated groups with vehicle control using ANOVA followed by post-hoc Dunnett's tests. Data with the reference substance were analyzed using unpaired Student's t tests."}}, "data": [{"smiles": "CN[C@H](C)CCC=C(C)C", "note": "[(R)-isometheptene mucate]", "values": [{"measurement": "Licking score compared to vehicle", "setting": "mice [1]", "result": "reduction in licking score"}, {"measurement": "Tactile sensory (von Frey) threshold values", "setting": "[2]", "result": "dramatic increase in threshold values"}, {"measurement": "Tail-flick activity relative to morphine", "setting": "mice [3]; 100 mg/kg p.o. versus morphine 32 mg/kg", "result": "activity similar to that of morphine"}, {"measurement": "Tail flick latency compared to vehicle", "setting": "mice [3]; thermal light source, three doses (10, 30, 100) p.o. 15 minutes before the test", "result": "longer tail flick latency times"}]}]}
